Consider 27 compounds from patent publication US20240132491A1, “INDOLINE COMPOUND” (MEDSHINE DISCOVERY INC., priority 2021, published 2024).

The target in one series is PD-1/PD-L1 (Homo sapiens (Human), UniProt Q9NZQ7). The series can be described thus: NFAT assay: TCR Activitor/PD-L1 CHO cells co-cultured with PD-1/NFAT Reporter-Jurkat cells, Bright-Glo readout. Format: cell-based. The conditions noted are these: PD-L1 CHO / PD-1 NFAT Reporter-Jurkat co-culture, 5 hours. The protocol: PD1:PD-L1 TR-FRET assay kit, purchased from BPS Biosciences. Bright-Glo reagents purchased from Promega. Nivo multimode microplate reader (PerkinElmer)
TCR Activitor/PD-L1 CHO cells with a growth confluence of 80% were seeded at 35,000 cells per well in a plate and then incubated overnight in a 37° C. cell culture incubator. The compound to be tested was 5-fold diluted with a pipette to the 8th concentration, i.e., from 100 μmol to 1.28 nmol, with a DMSO concentration of 100%. Experiments were set up in duplicate wells. 147 μL of culture medium was added to an intermediate plate, and then 3 μL of gradient diluted compound per well was transferred to the intermediate plate according to the corresponding position, resulting in compound concentrations ranging from 2 μmol to 0.0256 nmol with a DMSO concentration of 2%. The T cell receptor/PD-L1 CHO cell supernatant was discarded, and 50 μL of compound working solution was added to each well, followed by incubation at 37° C. for 30 minutes. After incubation, 50 μL of a PD-1/NFAT Reporter-Jurkat cell suspension at a density of 4×10^5/mL was added to each well, and the plate was incubated at 37° C. for 5 hours. After the incubation, 100 μL of Bright-Glo was added to each well. After mixing, chemiluminescence signals were read using a Nivo the multimode microplate reader.
Raw data was converted into inhibition rate using the equation: (Sample−Min)/(Max−Min)*100%. The IC50 value could then be derived by performing a curve fit using a four-parameter logistic model (obtained using the “log(inhibitor) vs. response—Variable slope” mode in GraphPad Prism). The degree of inhibition of the compound on PD-1/PD-L1 was calculated using the equation (Max−Min)/Min. The higher the multiple, the stronger the inhibition of the PD-1/PD-L1 pathway.

Series [1] in a line: In vivo pharmacokinetics study in mice. The arrangement: species or system C57BL/6 mice. The conditions noted are these: male, C57BL/6, plasma, mouse. The protocol: Male C57BL/6 mice were used as test animals, and the drug concentration in plasma at different times after intragastric administration of the test compound was determined by LC/MS/MS method. The pharmacokinetic behavior of the test compounds in mice in vivo was studied to evaluate their pharmacokinetic characteristics.
Test animals: Healthy male C57BL/6 mice. Drug preparation: For the IV group, the vehicle was 5% DMSO+95% (20% hydroxypropyl-β-cyclodextrin); for the PO group, the vehicle was 5% DMSO+95% (20% HP-β-CD). Administration: The dosage of the test compound was 1 mg/kg for the IV group, and 10 mg/kg or 30 mg/kg for the PO group (note: the PO group was fasted overnight before administration).
Experimental operations: After administration, whole blood was collected for a certain period of time and prepared into plasma. The drug concentration was analyzed by the LC-MS/MS method, and the pharmacokinetic parameters were calculated using Phoenix WinNonlin software (Pharsight, USA)

A further series deals with MC38-hPD-L1 colon cancer. The series can be described thus: Drug efficacy in MC38-hPD-L1 colon cancer model of B-hPD-L1 humanized mice. Format: in vivo. Conditions: compounds 20 to 50 mg/kg p.o. BID 21 days; atezolizumab 5 mg/kg i.p. TIW 10 times. How it is done:
Mouse colon cancer MC38 cells were purchased from Shunran Shanghai Biotech Co., Ltd. Biocytogen (Beijing) Co. Ltd genetically modified the MC38 cells to express human PD-L1, and named it MC38-hPD-L1. These cells were adherent cells, cultured in a 37° C., 5% CO2 incubator. The culture medium composition was Dulbecco's Modified Eagle's Medium (DMEM) containing 10% inactivated fetal bovine serum.
MC38-hPD-L1 cells resuspended in PBS were inoculated subcutaneously into the right flank of B-hPD-L1 mice at a volume of 5×10^5 cells/0.1 mL per mouse. When the average tumor volume reached 150±50 mm^3, suitable mice were selected based on tumor volume and body weight, and were evenly distributed into each group, with 8 mice per group. Drug administration started on the day of grouping. The administration vehicle of the oral administration group was 5% DMSO+95% (20% HP-β-CD in water), while the administration vehicle of the intraperitoneal injection group was 0.9% sodium chloride injection.
Note: a. The administration volume was calculated based on the weight of the experimental animals at […]; b. The dose was 20 mg/kg within 5 days after grouping, and the dose was adjusted to 50 mg/kg starting from the 6th day; c. “p.o.” refers to oral administration, “i.p.” refers to intraperitoneal injection; d. “TIW” refers to three times a week, “BID” refers to twice a day.
Tumor growth inhibition (TGITV): TGITV (%)=[1−(Ti−T0)/(Vi−V0)][…]% (Ti: mean tumor volume of the treatment group on day i of administration, T0: mean tumor volume of the treatment group on day 0 of administration, Vi: mean tumor volume of the vehicle control group on day i of administration, V0: mean tumor volume of the vehicle control group on day 0 of administration).

PD-1/PD-L1, sequence (Q9NZQ7 19-290): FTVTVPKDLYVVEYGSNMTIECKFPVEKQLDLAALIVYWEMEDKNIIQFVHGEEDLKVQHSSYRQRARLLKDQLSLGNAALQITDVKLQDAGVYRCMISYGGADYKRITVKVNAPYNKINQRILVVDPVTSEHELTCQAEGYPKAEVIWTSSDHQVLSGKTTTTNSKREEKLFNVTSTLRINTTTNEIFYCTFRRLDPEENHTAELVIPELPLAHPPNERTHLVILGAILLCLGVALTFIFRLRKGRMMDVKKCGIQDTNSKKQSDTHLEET

`COc1nc(-c2cccc(-c3cccc4c3CCN4c3nccc4cc(CN5CC[C@@H](O)C5)cnc34)c2Cl)ccc1CNC[C@@H]1CCC(=O)N1` [Compound 1]: at PD-1/PD-L1, inhibition was half-maximal at 35 nM (IC50). For the same compound, in series [1] (po, p.o. 30 mg/kg), the AUC(0-inf) (commonly total exposure, with the tail of the curve extrapolated) turned out to be 18.8 µM·h; the AUC(0-t) (usually the area under the concentration-time curve up to a stated or last time point) turned out to be 13.7 µM·h; the highest level (Cmax) was 1460 nM; the half-life (commonly the time in which the quantity being followed falls by half) is 12 h.

Turning to `COc1nc(-c2cccc(-c3cccc4c3CCN4c3nccc4cc(CN5CC[C@@H](O)C5)cnc34)c2Cl)cnc1CNC[C@@H]1CCC(=O)N1` [Compound 2], the IC50 (as a rule, the concentration at which inhibition is half-maximal) at PD-1/PD-L1 worked out at 16 nM. Besides, in series [1] (po, p.o. 30 mg/kg), the AUC(0-inf) is 23 µM·h; the AUC(0-t) is 20.6 µM·h; the Cmax (in general, the maximum level reached in the sampled fluid or tissue) came out at 1960 nM; the half-life was 6.9 h. At PD-1/PD-L1, `COc1nc(-c2cccc(-c3cccc4c3CCN4c3nc(C(F)F)nc4cc(CN5CC[C@@H](O)C5)cnc34)c2Cl)ccc1CNC[C@@H]1CCC(=O)N1` [Compound 3] came in with an IC50 of 4.7 nM. On to `COc1nc(-c2cccc(-c3cccc4c3CCN4c3nc(C(F)F)nc4cc(CN5CC[C@@H](O)C5)cnc34)c2Cl)cnc1CNC[C@@H]1CCC(=O)N1` [Compound 4], for which, on PD-1/PD-L1, the IC50 came out at 4.5 nM. The “Tumor growth inhibition TGITV (%)” value in the series on MC38-hPD-L1 colon cancer is on record as 86.1%. At PD-1/PD-L1, `N#CCOc1nc(-c2cccc(-c3cccc4c3CCN4c3nc(C(F)F)nc4cc(CN5CC[C@@H](O)C5)cnc34)c2Cl)ccc1CNC[C@@H]1CCC(=O)N1` [Compound 7] gave an IC50 of 3 nM. At PD-1/PD-L1, `N#CCOc1nc(-c2cccc(-c3cccc4c3CCN4c3nc(C(F)F)nc4cc(CN5CC[C@@H](C(=O)O)C5)cnc34)c2Cl)ccc1CNC[C@@H]1CCC(=O)N1` [Compound 8] came in with a half-inhibitory concentration (IC50) of 3.9 nM. For `COc1nc(-c2cccc(-c3cccc4c3CCN4c3nc(C(F)F)nc4cc(CN5CC[C@@H](C(=O)O)C5)cnc34)c2Cl)ccc1CNC[C@@H]1CCC(=O)N1` [Compound 9], the IC50 against PD-1/PD-L1 came out at 4.4 nM. As to `COc1nc(-c2cccc(-c3cccc4c3CCN4c3nc(C(F)F)nc4cc(CN5CC[C@@H](O)C5)cnc34)c2Cl)cnc1CN1CCC(C)(C(=O)O)C1` (stereo partly drawn) [Compound 11], the IC50 at PD-1/PD-L1 came out at 24.6 nM. On the same count and under the same terms, the same measure for `COc1nc(-c2cccc(-c3cccc4c3CCN4c3nc(C(F)F)nc4cc(CN5CC[C@@H](O)C5)cnc34)c2Cl)cnc1CN1CC[C@@H](O)C1` [Compound 12]: 10.9 nM; for `COc1nc(-c2cccc(-c3cccc4c3CCN4c3nc(C(F)F)nc4cc(CN5CC[C@@H](O)C5)cnc34)c2Cl)cnc1CNC[C@H](C(=O)O)C(C)C` [Compound 13]: 19 nM. The same measure, in the same setting: the value for `COc1nc(-c2cccc(-c3cccc4c3CCN4c3nc(C(F)F)nc4cc(CN5CC[C@@H](O)C5)cnc34)c2Cl)cnc1CNCC(C)(C)C(=O)O` [Compound 14] was 10.7 nM; that for `COc1nc(-c2cccc(-c3cccc4c3CCN4c3nc(C(F)F)nc4cc(CN5CC[C@@H](O)C5)cnc34)c2Cl)cnc1CN1CCC[C@H]1CC(=O)O` [Compound 15] was 35.1 nM; that for `COc1nc(-c2cccc(-c3cccc4c3CCN4c3nc(C(F)F)nc4cc(CN5CC[C@@H](O)C5)cnc34)c2Cl)ccc1CN1CCC(C)(C(=O)O)C1` (stereo partly drawn) [Compound 16] was 9.2 nM.

Consider `N#CCOc1nc(-c2cccc(-c3cccc4c3CCN4c3nc(C(F)F)nc4cc(CN5CC[C@@H](O)C5)cnc34)c2Cl)ccc1CN1CC[C@@H](C(=O)O)C1` [Compound 17], for which, at PD-1/PD-L1, half-maximal inhibition (IC50) was put at 7.5 nM. At PD-1/PD-L1, `COc1nc(-c2cccc(-c3cccc4c3CCN4c3nc(C(F)F)nc4cc(CN5CCC(C)(O)C5)cnc34)c2Cl)cnc1CNC[C@@H]1CCC(=O)N1` (stereo partly drawn) [Compound 18] displayed an IC50 of 3.5 nM. Same read-out and setting: the value for `COc1nc(-c2cccc(-c3cccc4c3CCN4c3nc(C(F)F)nc4cc(CN5CC[C@@H](O)C5)cnc34)c2C)cnc1CN1CC[C@@H](C(=O)O)C1` [Compound 19] was 30.7 nM; that for `COc1nc(-c2cccc(-c3cccc4c3CCN4c3nc(C(F)F)nc4cc(CN5CC[C@@H](O)C5)cnc34)c2C)cnc1CN1CCC(C)(C(=O)O)C1` (stereo partly drawn) [Compound 20] was 42.7 nM; that for `COc1nc(-c2cccc(-c3cccc4c3CCN4c3nc(C(F)F)nc4cc(CN5C[C@@H](O)[C@H](O)C5)cnc34)c2Cl)cnc1CNC[C@@H]1COC(=O)N1` [Compound 22] was 22.6 nM.

In the case of `COc1nc(-c2cccc(-c3cccc4c3CCN4c3nc(C(F)F)nc4cc(CN5CC[C@@H](O)C5)cnc34)c2C)ccc1CN1CC[C@@](C)(C(=O)O)C1` [Compound 23], half-maximal inhibition at PD-1/PD-L1 (IC50) required 32.6 nM. Still for that read-out and setting: the same measure for `COc1nc(-c2cccc(-c3cccc4c3CCN4c3nc(C(F)F)nc4cc(CN5CC[C@@H](O)C5)cnc34)c2C)ccc1CN1CC[C@](C)(C(=O)O)C1` [Compound 24]: 32.6 nM. For the compound `Cc1c(-c2nc3cc(CN4CC[C@@H](C(=O)O)C4)cc(C#N)c3o2)cccc1-c1cccc2c1CCN2c1nc(C(F)F)nc2cc(CN3CC[C@@H](O)C3)cnc12` [Compound 27], the IC50 against PD-1/PD-L1 is 6.71 nM. In addition, in series [1] (iv, i.v. 1 mg/kg), the AUC(0-inf) came to 2.1 µM·h; the AUC(0-t) was 1.65 µM·h; the clearance (in general, the rate of elimination divided by the concentration) was 10.6 mL/min/kg; the half-life is 12.5 h. Besides, the Vd in series [1] (iv, i.v. 1 mg/kg, read-out: Vdss) was found to be 8.97 L/kg. Moreover, in series [1] (oral, p.o. 10 mg/kg vs i.v. 1 mg/kg), the bioavailability (in general, dose-corrected exposure relative to a reference, in per cent) turned out to be 46.3%. In addition, in series [1] (po, p.o. 10 mg/kg), the AUC(0-inf) was 9.73 µM·h; the AUC(0-t) was 8.91 µM·h; the peak level (Cmax) was 680 nM; the time of peak concentration (Tmax) (as a rule, the time from dosing to the highest level) stood at 3.33 h. Also, in series [1] (po, p.o. 10 mg/kg), the half-life is 6.23 h. Moreover, in the series on MC38-hPD-L1 colon cancer, the “Tumor growth inhibition TGITV (%)” value is on record as 86.1%. In turn, `N#Cc1cc(CN2CC[C@@H](C(=O)O)C2)cc2nc(-c3cccc(-c4cccc5c4CCN5c4nc(C(F)F)nc5cc(CN6CC[C@@H](O)C6)cnc45)c3Cl)oc12` [Compound 28] came in with an IC50 against PD-1/PD-L1 of 4.67 nM.

As to `Cc1c(-c2nc3cc(CN4CC[C@@H](C(=O)O)C4)cnc3o2)cccc1-c1cccc2c1CCN2c1nc(C(F)F)nc2cc(CN3CC[C@@H](O)C3)cnc12` [Compound 29], the IC50 on PD-1/PD-L1 turned out to be 6.03 nM. Same read-out and setting: the same measure for `Cc1c(-c2nc3cc(CN4CC[C@@](C)(C(=O)O)C4)cnc3o2)cccc1-c1cccc2c1CCN2c1nc(C(F)F)nc2cc(CN3CC[C@@H](O)C3)cnc12` [Compound 30]: 14.5 nM.

As to `Cc1c(-c2nc3cc(CN4CC[C@@H](O)C4)cc(C#N)c3o2)cccc1-c1cccc2c1CCN2c1nc(C(F)F)nc2cc(CN3CC[C@@H](C(=O)O)C3)cnc12` [Compound 32], the half-maximal inhibitory concentration (IC50) against PD-1/PD-L1 was found to be 8.98 nM. On the same count and under the same terms, the value for `Cc1c(-c2nc3cc(CN4CC[C@@](C)(O)C4)cc(C#N)c3o2)cccc1-c1cccc2c1CCN2c1nc(C(F)F)nc2cc(CN3CC[C@@H](C(=O)O)C3)cnc12` [Compound 33] was 13.6 nM.

Take “Atezolizumab: PD-L1 monoclonal antibody, approved for urothelial carcinoma and non-small cell lung cancer [reference compound]”: the “Tumor growth inhibition TGITV (%)” value in the series with MC38-hPD-L1 colon cancer is given as 88.4%.
